Molecules are shown by their SMILES. Where two headings read alike, the source gives them in different places.

The assay has as its target DPP4 (Homo sapiens, UniProt P27487). In words: DPP4 activity assay (DPP4 inhibitor screening assay kit, Cayman).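 On all read-outs here: fluorescence read at excitation 360 nm and emission 460 nm after the enzyme reaction ran 30 min at 37 °C in a 96-well plate.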 In kind it is biochemical. The settings on record: 10 µM, control mean 100.0; for remaining activity at 10 µM: 0.5 h. Set-up: purchased Cayman Chemical, Ann Arbor, MI, USA.
[1] abbreviates: Figure 1A raw data, read-out: DPP4 activity in library screen, Exp 1.
Where [2] appears, read: Figure 1A raw data, read-out: DPP4 activity in library screen, Exp 2.
[3] abbreviates: Figure 1A raw data, read-out: DPP4 activity in library screen, Exp 3.
Setting [4] is: mean of Exp 1-3, read-out: DPP4 activity in library screen, Mean.

DPP4, sequence (P27487 whole entry): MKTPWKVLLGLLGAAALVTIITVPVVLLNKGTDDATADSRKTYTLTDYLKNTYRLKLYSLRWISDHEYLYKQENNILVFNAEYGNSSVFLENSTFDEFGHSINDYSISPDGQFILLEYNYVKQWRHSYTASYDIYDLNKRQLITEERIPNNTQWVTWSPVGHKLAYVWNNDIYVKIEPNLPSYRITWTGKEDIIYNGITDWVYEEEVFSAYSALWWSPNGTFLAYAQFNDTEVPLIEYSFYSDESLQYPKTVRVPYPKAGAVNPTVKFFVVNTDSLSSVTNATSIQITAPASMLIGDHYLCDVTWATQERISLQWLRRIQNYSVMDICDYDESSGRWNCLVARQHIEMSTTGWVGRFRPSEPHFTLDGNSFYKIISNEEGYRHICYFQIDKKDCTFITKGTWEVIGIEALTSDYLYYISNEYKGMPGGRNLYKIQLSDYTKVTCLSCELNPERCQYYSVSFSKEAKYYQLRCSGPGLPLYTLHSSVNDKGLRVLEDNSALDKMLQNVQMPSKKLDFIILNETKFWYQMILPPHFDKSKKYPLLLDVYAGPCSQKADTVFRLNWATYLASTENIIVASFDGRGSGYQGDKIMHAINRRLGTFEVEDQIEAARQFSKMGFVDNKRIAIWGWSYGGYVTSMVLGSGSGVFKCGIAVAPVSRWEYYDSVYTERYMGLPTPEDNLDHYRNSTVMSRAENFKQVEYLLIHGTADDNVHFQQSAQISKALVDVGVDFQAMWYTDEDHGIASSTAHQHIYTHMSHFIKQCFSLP

For the compound `C[N+](C)(C)CC(O)CC(=O)O.[Cl-]` (racemic) [DL-Carnitine HCl], for the setting “Figure 1A raw data”, the “DPP4 activity in library screen, Exp 1” value turned out to be 97.3; the “DPP4 activity in library screen, Exp 2” value stood at 93.1; the “DPP4 activity in library screen, Exp 3” value is given as 99.1. Further, under “mean of Exp 1-3”, the “DPP4 activity in library screen, Mean” value is on record as 96.5.
Taken in the same sequence, the figures for `CC(=O)c1c(O)c(C)c(O)c2c1OC1=CC(=O)C(C(C)=O)C(=O)C12C` (single isomer, unassigned; (+)) [(+)-Usniacin] were 88.7, 90.4, 89.7 and 89.6.
`O=C(O)CCCc1c[nH]c2ccccc12` [3-Indolebutyric acid (IBA), 3-Indolebutyric acid]: the remaining activity at 10 µM is, setting by setting: under setting [1], 92%; under setting [2], 93.9%; under setting [3], 107%; under setting [4], 97.5%.
As to `Cc1cc(=O)oc2cc(O)ccc12` [4-Methylumbelliferone (4-MU), 4-Methylumbelliferone], where the note is “mean of Exp 1-3”, the “DPP4 activity in library screen, Mean” value is “auto-fluorescence”.
`N[C@@H](Cc1c[nH]c2ccc(O)cc12)C(=O)O` [5-hydroxytryptophan (5-HTP), 5-hydroxytryptophan]: the remaining activity at 10 µM stood at 93.3% under setting [1], 82.6% under setting [2], 90.6% under setting [3] and 88.8% under setting [4].
On to `O=C1CCC[C@@H]2[C@H]3CCCN4CCC[C@@H](CN12)[C@@H]34` [(+)-Matrine], for which, for the setting “Figure 1A raw data”, the “DPP4 activity in library screen, Exp 1” value was 101.6; the “DPP4 activity in library screen, Exp 2” value came to 98; the “DPP4 activity in library screen, Exp 3” value is given as 94.4. Further, under “mean of Exp 1-3”, the “DPP4 activity in library screen, Mean” value was 98.0.
`O=C(O[C@@H]1Cc2c(O)cc(O)cc2O[C@@H]1c1cc(O)c(O)c(O)c1)c1cc(O)c(O)c(O)c1` [(-)-Epigallocatechin Gallate]: the remaining activity at 10 µM is 100% under setting [1], 90.2% under setting [2], 81.9% under setting [3] and 90.8% under setting [4].
Take `C=C1C(=O)O[C@H]2[C@H]1CC/C(C)=C/CC[C@@]1(C)O[C@@H]21` [(-)-Parthenolide]: under “Figure 1A raw data”, the “DPP4 activity in library screen, Exp 1” value is 73.3; the “DPP4 activity in library screen, Exp 2” value is on record as 84.6; the “DPP4 activity in library screen, Exp 3” value turned out to be 113.2. Also, the “DPP4 activity in library screen, Mean” value (mean of Exp 1-3) stood at 90.4.
For the compound `CC[C@@]1(O)C(=O)OCc2c1cc1n(c2=O)Cc2cc3cc(O)ccc3nc2-1` [(S)-10-Hydroxycamptothecin], the remaining activity at 10 µM is, setting by setting: under setting [1], 87.4%; under setting [2], 77.6%; under setting [3], 85.7%; under setting [4], 83.6%.
Taken in the same sequence, the figures for `O=C1c2c(O)cccc2C([C@@H]2O[C@H](CO)[C@@H](O)[C@H](O)[C@H]2O)c2cc(CO)cc(O)c21` (stereo partly shown) [Aloin] were 91.5%, 70.4%, 71.7% and 77.9%.
For the compound `CC1(C)[C@@H](O[C@H]2O[C@H](C(=O)O)[C@@H](O)[C@H](O)[C@H]2O[C@@H]2O[C@H](C(=O)O)[C@@H](O)[C@H](O)[C@H]2O)CC[C@]2(C)[C@H]3C(=O)C=C4[C@@H]5C[C@@](C)(C(=O)O)CC[C@]5(C)CC[C@@]4(C)[C@]3(C)CC[C@@H]12` [Ammonium Glycyrrhizinate], under “Figure 1A raw data”, the “DPP4 activity in library screen, Exp 1” value stood at 83.3; the “DPP4 activity in library screen, Exp 2” value is 106.3; the “DPP4 activity in library screen, Exp 3” value is 81.6. The “DPP4 activity in library screen, Mean” value (mean of Exp 1-3) was 90.4.
`N#C[C@H](O[C@@H]1O[C@H](CO[C@@H]2O[C@H](CO)[C@@H](O)[C@H](O)[C@H]2O)[C@@H](O)[C@H](O)[C@H]1O)c1ccccc1` [Amygdalin]: the remaining activity at 10 µM amounted to 96.2% under setting [1], 94.7% under setting [2], 92.1% under setting [3] and 94.3% under setting [4].
Take `C=C1CC[C@@H]2[C@](C)(CO)[C@H](O)CC[C@@]2(C)[C@@H]1C/C=C1/C(=O)OC[C@H]1O` [Andrographolide]: the remaining activity at 10 µM came to 103% under setting [1], 100% under setting [2], 96.8% under setting [3] and 100% under setting [4].
Take `O=c1cc(-c2ccc(O)cc2)oc2cc(O)cc(O)c12` [Apigenin]: the remaining activity at 10 µM was 97.4% under setting [1], 70.3% under setting [2], 67.8% under setting [3] and 78.5% under setting [4].
Taken in the same sequence, the figures for `COc1cc(C(C)=O)ccc1O` [Apocynin] were 82.6%, 90.9%, 116% and 96.6%.
Taken in the same sequence, the figures for `OC[C@H]1O[C@@H](Oc2ccc(O)cc2)[C@H](O)[C@@H](O)[C@@H]1O` [Arbutin] were 95.9%, 96.2%, 96.1% and 96.1%.
As for `C[C@H]1[C@H](OC(=O)CCC(=O)O)O[C@@H]2O[C@@]3(C)CC[C@H]4[C@H](C)CC[C@@H]1[C@@]24OO3` [Artesunate], the remaining activity at 10 µM under setting [1] was 95.1%, the remaining activity at 10 µM under setting [2] worked out at 99%, the remaining activity at 10 µM under setting [3] was 87% and the remaining activity at 10 µM under setting [4] worked out at 93.7%.
`C[C@H]1[C@H](C)CC[C@]2(C(=O)O)CC[C@]3(C)C(=CC[C@@H]4[C@@]5(C)C[C@@H](O)[C@H](O)[C@@](C)(CO)[C@@H]5CC[C@]43C)[C@H]12` [Asiatic Acid]: the remaining activity at 10 µM came to 83.3% under setting [1], 65.3% under setting [2], 130% under setting [3] and 93% under setting [4].
For the compound `CC(C)(O)[C@H]1CC[C@@](C)([C@H]2[C@@H](O)C[C@@]3(C)[C@@H]4C[C@H](O[C@@H]5O[C@H](CO)[C@@H](O)[C@H](O)[C@H]5O)[C@H]5C(C)(C)[C@@H](O[C@@H]6OC[C@@H](O)[C@H](O)[C@H]6O)CC[C@@]56C[C@@]46CC[C@]23C)O1` [Astragaloside A], where the note is “Figure 1A raw data”, the “DPP4 activity in library screen, Exp 1” value came to 103.8; the “DPP4 activity in library screen, Exp 2” value worked out at 108.8; the “DPP4 activity in library screen, Exp 3” value is on record as 101.9. Further, the “DPP4 activity in library screen, Mean” value (mean of Exp 1-3) worked out at 104.8.
As to `O=[N+]([O-])c1ncc[nH]1` [Azomycin], the remaining activity at 10 µM came to 74.2% under setting [1], 78.5% under setting [2], 76.2% under setting [3] and 76.3% under setting [4].
Taken in the same sequence, the figures for `O=C(O)[C@H]1O[C@@H](Oc2cc3oc(-c4ccccc4)cc(=O)c3c(O)c2O)[C@H](O)[C@@H](O)[C@@H]1O` [Baicalin] were 71.4%, 51.3%, 111% and 77.9%.
For `COc1ccc2cc3[n+](cc2c1OC)CCc1cc2c(cc1-3)OCO2.[Cl-]` [Berberine HCl], for the setting “Figure 1A raw data”, the “DPP4 activity in library screen, Exp 1” value turned out to be 52.4; the “DPP4 activity in library screen, Exp 2” value came out at 58.4; the “DPP4 activity in library screen, Exp 3” value was 54.2. The “DPP4 activity in library screen, Mean” value (mean of Exp 1-3) amounted to 55.0.

These data come from PMC5428354, “Screening of a natural compound library identifies emodin, a natural compound from Rheum palmatum Linn that inhibits DPP4” (PeerJ, 2017).
